In patent publication US11542313B2, “Incretin analogs and uses thereof” (Eli Lilly and Company, priority 2017, dated 2023):
*1 amine or outer side, *2 acyl side, *3 side chain or, on linkers, in order; H or OH if unused. Where a SMILES comes first, the peptide text is derived from it. Side-chain parts run from the residue outwards. [ ]: non-standard residue; d: D form. The star is where a group is joined. C20 diacid = O=C(O)CCCCCCCCCCCCCCCCCCC(=O)*; γGlu = O=C(O)[C@H](CCC(=O)[*:2])N[*:1]; αMeL = CC(C)C[C@](C)(N)C(=O)O; AEEA = NCCOCCOCC(=O)O; Aib = CC(C)(N)C(=O)O

Columns and labels:
hGLP-1R = hGLP-1R (Homo sapiens, UniProt P43220); assay: cAMP assay in HEK293 cells expressing hGLP-1R, 0.1% casein; assay type: cell-based; conditions: in the presence of 0.1% casein; read-out: cAMP EC50, GLP-1R
[1] = biological target: T1, human GIP receptor (GIPR) (Homo sapiens, UniProt P48546); assay: Radioligand competition binding (SPA), human GIPR membranes; conditions: HEK293 membranes, SPA, bacitracin present; mean; read-out: Ki, GIPR
T1 construct: expressed in transfected cells; host or cells: HEK293 (membranes)
T1 sequence (P48546 22-466): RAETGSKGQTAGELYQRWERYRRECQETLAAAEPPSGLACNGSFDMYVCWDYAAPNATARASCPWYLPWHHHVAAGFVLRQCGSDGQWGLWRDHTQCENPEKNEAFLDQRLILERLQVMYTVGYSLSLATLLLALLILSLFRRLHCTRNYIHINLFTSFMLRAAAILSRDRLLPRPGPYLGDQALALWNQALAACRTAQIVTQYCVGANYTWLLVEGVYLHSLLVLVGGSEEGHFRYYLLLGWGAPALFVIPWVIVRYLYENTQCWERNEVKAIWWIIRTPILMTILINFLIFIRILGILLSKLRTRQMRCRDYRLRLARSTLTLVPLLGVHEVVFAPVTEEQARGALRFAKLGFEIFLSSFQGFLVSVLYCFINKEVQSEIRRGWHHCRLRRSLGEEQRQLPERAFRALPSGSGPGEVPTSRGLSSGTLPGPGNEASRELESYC
Text: (§1) Radioligand competition binding assays are run to determine the equilibrium dissociation constant for exemplary compounds and comparator molecules.
(§2) Competition curves are plotted as the percent specific inhibition (y-axis) versus log concentration of compound (x-axis) and analyzed using a four parameter nonlinear regression fit with variable slope (ABase or Genedata).

hGcgR = biological target: T2, hGcgR (Homo sapiens, UniProt P47871); assay: cAMP assay in HEK293 cells expressing hGcgR, 0.1% casein; assay type: cell-based; conditions: in the presence of 0.1% casein; read-out: cAMP EC50, GcGR
T2 construct: expressed in transfected cells; host or cells: HEK293

[2] = biological target: T3, human glucagon receptor (GcgR) (Homo sapiens, UniProt P47871); assay: Radioligand competition binding (SPA), human GcgR membranes; conditions: HEK293 membranes, SPA, bacitracin present; mean; read-out: Ki, GcgR
T3 construct: expressed in transfected cells; host or cells: HEK293 (membranes)
Text: as §1, §2

GLP-1 receptor (GLP-1R) = biological target: T4, GLP-1 receptor (GLP-1R) (Homo sapiens, UniProt P43220); assay: Radioligand competition binding (SPA), human GLP-1R membranes; conditions: HEK293 membranes, SPA, bacitracin present; mean; read-out: Ki, GLP-1R
T4 construct: expressed in transfected cells; host or cells: HEK293 (membranes)
Text: as §1, §2

hGIPR = biological target: T5, hGIPR (Homo sapiens, UniProt P48546); assay: cAMP assay in HEK293 cells expressing hGIPR, 0.1% casein; assay type: cell-based; conditions: in the presence of 0.1% casein; read-out: cAMP EC50, GIPR
T5 construct: expressed in transfected cells; host or cells: HEK293
T5 sequence (P48546 22-466): T1 sequence (P48546 22-466)

T3 sequence (P47871 26-477): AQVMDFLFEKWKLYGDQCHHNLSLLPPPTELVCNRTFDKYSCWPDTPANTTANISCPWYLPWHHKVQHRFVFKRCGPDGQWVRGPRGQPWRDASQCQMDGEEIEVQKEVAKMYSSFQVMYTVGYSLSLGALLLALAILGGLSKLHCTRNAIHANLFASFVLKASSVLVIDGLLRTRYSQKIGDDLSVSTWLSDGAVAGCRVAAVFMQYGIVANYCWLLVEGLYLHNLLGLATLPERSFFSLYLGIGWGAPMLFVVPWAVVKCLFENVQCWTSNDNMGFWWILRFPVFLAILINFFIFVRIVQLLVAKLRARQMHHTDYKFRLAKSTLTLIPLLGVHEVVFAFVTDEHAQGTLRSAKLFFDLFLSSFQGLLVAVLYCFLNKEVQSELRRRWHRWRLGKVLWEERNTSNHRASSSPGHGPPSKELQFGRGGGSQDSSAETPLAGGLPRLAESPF
T2 sequence (P47871 26-477): as above
hGLP-1R, sequence (P43220 24-463): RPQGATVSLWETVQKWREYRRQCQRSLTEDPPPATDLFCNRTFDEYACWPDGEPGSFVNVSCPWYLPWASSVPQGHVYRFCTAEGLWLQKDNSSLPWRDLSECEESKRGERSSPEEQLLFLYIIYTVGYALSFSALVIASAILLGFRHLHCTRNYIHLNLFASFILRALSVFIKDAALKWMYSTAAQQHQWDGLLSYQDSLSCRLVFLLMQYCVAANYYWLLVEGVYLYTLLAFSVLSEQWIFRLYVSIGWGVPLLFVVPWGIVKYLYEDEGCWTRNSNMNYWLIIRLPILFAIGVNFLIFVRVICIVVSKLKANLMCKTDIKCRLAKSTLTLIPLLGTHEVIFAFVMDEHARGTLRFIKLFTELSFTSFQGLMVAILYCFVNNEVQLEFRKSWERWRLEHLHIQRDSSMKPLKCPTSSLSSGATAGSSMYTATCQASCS
T4 sequence (P43220 24-463): as above

| Structure (SMILES) | EC50 (hGLP-1R) | Ki [1] | EC50 (hGcgR) | Ki [2] | Ki (GLP-1 receptor (GLP-1R)) | EC50 (hGIPR) |
| --- | --- | --- | --- | --- | --- | --- |
| CC[C@H](C)[C@H](NC(=O)[C@H](Cc1ccccc1)NC(=O)[C@H](C)NC(=O)[C@H](Cc1c[nH]cn1)NC(=O)[C@H](CCC(N)=O)NC(=O)[C@H](C)NC(=O)[C@H](CCCCNC(=O)CC[C@H](NC(=O)CC[C@H](NC(=O)CCCCCCCCCCCCCCCCCCC(=O)O)C(=O)O)C(=O)O)NC(=O)[C@H](CCCCN)NC(=O)[C@H](CC(=O)O)NC(=O)[C@H](CC(C)C)NC(=O)[C@](C)(CC(C)C)NC(=O)[C@@H](NC(=O)[C@H](CO)NC(=O)[C@H](Cc1ccc(O)cc1)NC(=O)[C@H](CC(=O)O)NC(=O)[C@H](CO)NC(=O)[C@@H](NC(=O)[C@H](Cc1ccccc1)NC(=O)[C@@H](NC(=O)CNC(=O)[C@H](CCC(N)=O)NC(=O)C(C)(C)NC(=O)[C@@H](N)Cc1ccc(O)cc1)[C@@H](C)O)[C@@H](C)O)[C@@H](C)CC)C(=O)N[C@@H](CCC(=O)O)C(=O)N[C@@H](Cc1ccc(O)cc1)C(=O)N[C@@H](CC(C)C)C(=O)N[C@@H](CC(C)C)C(=O)N[C@@H](CCC(=O)O)C(=O)NCC(=O)NCC(=O)N1CCC[C@H]1C(=O)N[C@@H](CO)C(=O)N[C@@H](CO)C(=O)NCC(=O)N[C@@H](C)C(=O)N1CCC[C@H]1C(=O)N1CCC[C@H]1C(=O)N1CCC[C@H]1C(=O)N[C@@H](CO)C(N)=O [Example 9] (H-Y[Aib]QGTFTSDYSI[αMeL]LDKK([γGlu-γGlu-C20 diacid])AQHAFIEYLLEGGPSSGAPPPS-NH2; N-terminus assumed) | 0.0931 nM | 0.126 nM | 0.139 nM | 8.27 nM | 11.5 nM | 0.0522 nM |
| CC[C@H](C)[C@H](NC(=O)[C@H](Cc1ccccc1)NC(=O)[C@H](C)NC(=O)C(C)(C)NC(=O)[C@H](CCC(N)=O)NC(=O)[C@H](C)NC(=O)[C@H](CCCCNC(=O)COCCOCCNC(=O)CC[C@H](NC(=O)CCCCCCCCCCCCCCCCCCC(=O)O)C(=O)O)NC(=O)[C@H](CCCCN)NC(=O)[C@H](CC(=O)O)NC(=O)[C@H](CC(C)C)NC(=O)[C@](C)(CC(C)C)NC(=O)[C@@H](NC(=O)[C@H](CO)NC(=O)[C@H](Cc1ccc(O)cc1)NC(=O)[C@H](CC(=O)O)NC(=O)[C@H](CO)NC(=O)[C@@H](NC(=O)[C@H](Cc1ccccc1)NC(=O)[C@@H](NC(=O)CNC(=O)[C@H](CCC(N)=O)NC(=O)C(C)(C)NC(=O)[C@@H](N)Cc1ccc(O)cc1)[C@@H](C)O)[C@@H](C)O)[C@@H](C)CC)C(=O)N[C@@H](CCC(=O)O)C(=O)N[C@@H](Cc1ccc(O)cc1)C(=O)N[C@@H](CC(C)C)C(=O)N[C@@H](CC(C)C)C(=O)N[C@@H](CCC(=O)O)C(=O)NC(C)(C)C(=O)NCC(=O)N1CCC[C@H]1C(=O)N[C@@H](CO)C(=O)N[C@@H](CO)C(=O)NC(C)(C)C(=O)N[C@@H](C)C(=O)N1CCC[C@H]1C(=O)N1CCC[C@H]1C(=O)N1CCC[C@H]1C(=O)N[C@@H](CO)C(N)=O [Example 14] (H-Y[Aib]QGTFTSDYSI[αMeL]LDKK([AEEA-γGlu-C20 diacid])AQ[Aib]AFIEYLLE[Aib]GPSS[Aib]APPPS-NH2; N-terminus assumed) | 0.146 nM | 0.035 nM | 0.0876 nM | 2.64 nM | 6.27 nM | 0.0356 nM |
| CC[C@H](C)[C@H](NC(=O)[C@H](Cc1ccccc1)NC(=O)[C@H](C)NC(=O)C(C)(C)NC(=O)[C@H](CCC(N)=O)NC(=O)[C@H](C)NC(=O)[C@H](CCCCNC(=O)COCCOCCNC(=O)COCCOCCNC(=O)CC[C@H](NC(=O)CCCCCCCCCCCCCCCCCCC(=O)O)C(=O)O)NC(=O)[C@H](CCCCN)NC(=O)[C@H](CC(=O)O)NC(=O)[C@H](CC(C)C)NC(=O)[C@H](CC(C)C)NC(=O)[C@@H](NC(=O)[C@H](CO)NC(=O)[C@H](Cc1ccc(O)cc1)NC(=O)[C@H](CC(=O)O)NC(=O)[C@H](CO)NC(=O)[C@@H](NC(=O)[C@H](Cc1ccccc1)NC(=O)[C@@H](NC(=O)CNC(=O)[C@H](CCC(N)=O)NC(=O)C(C)(C)NC(=O)[C@@H](N)Cc1ccc(O)cc1)[C@@H](C)O)[C@@H](C)O)[C@@H](C)CC)C(=O)N[C@@H](CCC(=O)O)C(=O)N[C@@H](Cc1ccc(O)cc1)C(=O)N[C@@H](CC(C)C)C(=O)N[C@@H](CC(C)C)C(=O)N[C@@H](C)C(=O)NC(C)(C)C(=O)NCC(=O)N1CCC[C@H]1C(=O)N[C@@H](CO)C(=O)N[C@@H](CO)C(=O)NCC(=O)N[C@@H](C)C(=O)N1CCC[C@H]1C(=O)N1CCC[C@H]1C(=O)N1CCC[C@H]1C(=O)N[C@@H](CO)C(N)=O [Example 15] (H-Y[Aib]QGTFTSDYSILLDKK([AEEA-AEEA-γGlu-C20 diacid])AQ[Aib]AFIEYLLA[Aib]GPSSGAPPPS-NH2; N-terminus assumed) | 0.253 nM | 0.0972 nM | 0.131 nM | 4.56 nM | 5.8 nM | 0.0689 nM |
| CC[C@H](C)[C@H](NC(=O)[C@H](Cc1ccccc1)NC(=O)[C@H](C)NC(=O)C(C)(C)NC(=O)[C@H](CCC(N)=O)NC(=O)[C@H](C)NC(=O)[C@H](CCCCNC(=O)COCCOCCNC(=O)COCCOCCNC(=O)CC[C@H](NC(=O)CCCCCCCCCCCCCCCCCCC(=O)O)C(=O)O)NC(=O)[C@H](CCCCN)NC(=O)[C@H](CC(=O)O)NC(=O)[C@H](CC(C)C)NC(=O)[C@H](CC(C)C)NC(=O)[C@@H](NC(=O)[C@H](CO)NC(=O)[C@H](Cc1ccc(O)cc1)NC(=O)[C@H](CC(=O)O)NC(=O)[C@H](CO)NC(=O)[C@@H](NC(=O)[C@H](Cc1ccccc1)NC(=O)[C@@H](NC(=O)CNC(=O)[C@H](CCC(N)=O)NC(=O)C(C)(C)NC(=O)[C@@H](N)Cc1ccc(O)cc1)[C@@H](C)O)[C@@H](C)O)[C@@H](C)CC)C(=O)N[C@@H](CCC(=O)O)C(=O)N[C@@H](Cc1ccc(O)cc1)C(=O)N[C@@H](CC(C)C)C(=O)N[C@@H](CC(C)C)C(=O)N[C@@H](CCC(=O)O)C(=O)NC(C)(C)C(=O)NCC(=O)N1CCC[C@H]1C(=O)N[C@@H](CO)C(=O)N[C@@H](CO)C(=O)NCC(=O)N[C@@H](C)C(=O)N1CCC[C@H]1C(=O)N1CCC[C@H]1C(=O)N1CCC[C@H]1C(=O)N[C@@H](CO)C(N)=O [Example 17] (H-Y[Aib]QGTFTSDYSILLDKK([AEEA-AEEA-γGlu-C20 diacid])AQ[Aib]AFIEYLLE[Aib]GPSSGAPPPS-NH2) | 0.153 nM | 0.0895 nM | 0.135 nM | 5.81 nM | 10.2 nM | 0.0439 nM |
| CC[C@H](C)[C@H](NC(=O)[C@H](Cc1ccccc1)NC(=O)[C@H](C)NC(=O)C(C)(C)NC(=O)[C@H](CCC(N)=O)NC(=O)[C@H](C)NC(=O)[C@H](CCCCNC(=O)COCCOCCNC(=O)CC[C@H](NC(=O)CC[C@H](NC(=O)CCCCCCCCCCCCCCCCCCC(=O)O)C(=O)O)C(=O)O)NC(=O)[C@H](CCCCN)NC(=O)[C@H](CC(=O)O)NC(=O)[C@H](CC(C)C)NC(=O)[C@H](CC(C)C)NC(=O)[C@@H](NC(=O)[C@H](CO)NC(=O)[C@H](Cc1ccc(O)cc1)NC(=O)[C@H](CC(=O)O)NC(=O)[C@H](CO)NC(=O)[C@@H](NC(=O)[C@H](Cc1ccccc1)NC(=O)[C@@H](NC(=O)CNC(=O)[C@H](CCC(N)=O)NC(=O)C(C)(C)NC(=O)[C@@H](N)Cc1ccc(O)cc1)[C@@H](C)O)[C@@H](C)O)[C@@H](C)CC)C(=O)N[C@@H](CCC(=O)O)C(=O)N[C@@H](Cc1ccc(O)cc1)C(=O)N[C@@H](CC(C)C)C(=O)N[C@@H](CC(C)C)C(=O)N[C@@H](CCC(=O)O)C(=O)NC(C)(C)C(=O)NCC(=O)N1CCC[C@H]1C(=O)N[C@@H](CO)C(=O)N[C@@H](CO)C(=O)NCC(=O)N[C@@H](C)C(=O)N1CCC[C@H]1C(=O)N1CCC[C@H]1C(=O)N1CCC[C@H]1C(=O)N[C@@H](CO)C(N)=O [Example 19] (H-Y[Aib]QGTFTSDYSILLDKK([AEEA-γGlu-γGlu-C20 diacid])AQ[Aib]AFIEYLLE[Aib]GPSSGAPPPS-NH2; N-terminus assumed) | 0.143 nM | 0.0789 nM | 0.0874 nM | 5.2 nM | 12 nM | 0.0455 nM |
